Results: patent publication US20130245081A1, “Compositions and Methods for Treating Amyotrophic Lateral Sclerosis” (priority 2009, published 2013)
Where “and” joins values, the source holds several entries; their conditions need not be identical. Equal entries are not always repeated. Where two headings read alike, the source gives them in different places.

Tested on: patients with ALS
[1] = 50 mg, No Riluzole Use, through Week 28
[2] = 50 mg, Riluzole Use, through Week 28
[3] = 50 mg, double-blind treatment period
[4] = 50 mg, through the end of the study
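Further: adverse event data gathered at every clinic visit and phone contact, after first study drug dose, in a blinded trial, counts of affected subjects.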

CCCN[C@@H]1CCc2nc(N)sc2C1 [dexpramipexole, (6R)-2-amino-4,5,6,7-tetrahydro-6-(propylamino)benzothiazole]
18: Number of serious TEAEs [4]
4 subjects: subjects with serum chemistry abnormalities of potential clinical significance [3]
22 (46%) N (%): TEAE: Musculoskeletal and Connective Tissue Disorders (50 mg, through Week 28)
15: Number of serious TEAEs (50 mg, through Week 28)
7 subjects: subjects with TEAEs with an outcome of death (b230 count) [4]
2 (4%) N (%): ALS-related TEAE: Affect liability (50 mg, through Week 28) | ALS-related TEAE: Choking (50 mg, through Week 28) | ALS-related TEAE: Disease progression (50 mg, through Week 28) | ALS-related TEAE: Myalgia (50 mg, through Week 28) | ALS-related TEAE: Pain in extremity (50 mg, through Week 28) | ALS-related TEAE: Psychiatric Disorders (50 mg, through Week 28) | ALS-related TEAE: Vital capacity decreased (50 mg, through Week 28) | TEAE: Anxiety (50 mg, through Week 28) | TEAE: Arthralgia (50 mg, through Week 28) | TEAE: Cardiac Disorders (50 mg, through Week 28) | TEAE: Musculoskeletal pain (50 mg, through Week 28) | TEAE: Rash (50 mg, through Week 28) | TEAE: Sinusitis (50 mg, through Week 28) | serious TEAE: General Disorders and Administration Site Conditions (50 mg, through Week 28)
4 (8%) N (%): ALS-related TEAE: Constipation (50 mg, through Week 28) | ALS-related TEAE: Dysarthria (50 mg, through Week 28) | ALS-related TEAE: Dyspnoea (50 mg, through Week 28) | ALS-related TEAE: Respiratory failure (50 mg, through Week 28) | TEAE: Dysarthria (50 mg, through Week 28) | TEAE: Nausea (50 mg, through Week 28) | TEAE: Pharyngolaryngeal pain (50 mg, through Week 28) | TEAE: Respiratory failure (50 mg, through Week 28) | serious TEAE: Respiratory failure (50 mg, through Week 28)
12 (25%) N (%): ALS-related TEAE: Muscular weakness (50 mg, through Week 28)
4 (17%) N (%): AE: Constipation [1] | AE: Depression [1] | AE: Oedema peripheral [1]
5 (20%) N (%): AE: Fall [2]
6 (13%) N (%): TEAE: Depression (50 mg, through Week 28) | TEAE: Metabolism and Nutrition Disorders (50 mg, through Week 28)
20: Number of severe TEAEs [4]
277: Number of TEAEs (50 mg, through Week 28)
Two: subjects with QTcF interval >450 msec (50 mg, any post-baseline visit)
10 (21%) N (%): ALS-related TEAE: Fall (50 mg, through Week 28) | ALS-related TEAE: Injury, Poisoning and Procedural Complications (50 mg, through Week 28)
Four: subjects with increase from baseline in QTcF >30 msec (50 mg)
17 (35%) N (%): TEAE: Respiratory, Thoracic and Mediastinal Disorders (50 mg, through Week 28)
11 (23%) N (%): ALS-related TEAE: Nervous System Disorders (50 mg, through Week 28) | ALS-related TEAE: Respiratory, Thoracic and Mediastinal Disorders (50 mg, through Week 28) | TEAE: Fall (50 mg, through Week 28)
2 N (%) and 2 (4%) N (%): Subjects with a TEAE with action taken of study drug discontinued [4]
39: Number of treatment-related TEAEs [4]
7 (30%) N (%): AE: Muscular weakness [1]
2 N (%) and 1 (2%) N (%): TEAE: Dry mouth (50 mg, through Week 28)
1 (4%) N (%): AE: Anxiety [1] | AE: Dysarthria [1] | AE: Headache [1] | AE: Pharyngolaryngeal pain [1] | AE: Sinusitis [1] | AE: Urinary tract infection [1] | AE: Anxiety [2] | AE: Dry mouth [2] | AE: Sinusitis [2]
30 subjects: subjects with decrease in weight >7% from baseline (50 mg and 300 mg groups together, double-blind period)
3 (6%) N (%): ALS-related TEAE: Fatigue (50 mg, through Week 28) | ALS-related TEAE: Investigations (50 mg, through Week 28) | ALS-related TEAE: Muscle contractions involuntary (50 mg, through Week 28) | ALS-related TEAE: Oedema peripheral (50 mg, through Week 28) | TEAE: Fatigue (50 mg, through Week 28) | TEAE: Headache (50 mg, through Week 28) | TEAE: Muscle contractions involuntary (50 mg, through Week 28) | TEAE: Pneumonia (50 mg, through Week 28) | TEAE: Pruritus (50 mg, through Week 28) | TEAE: Urinary tract infection (50 mg, through Week 28) | TEAE: Vomiting (50 mg, through Week 28) | serious TEAE: Infections and Infestations (50 mg, through Week 28)
35: Number of treatment-related TEAEs (50 mg, through Week 28)
5 (10%) N (%): ALS-related TEAE: Dysphagia (50 mg, through Week 28) | ALS-related TEAE: Muscle spasticity (50 mg, through Week 28) | TEAE: Dysphagia (50 mg, through Week 28) | TEAE: Dyspnoea (50 mg, through Week 28) | TEAE: Muscle spasticity (50 mg, through Week 28) | TEAE: Upper respiratory tract infection (50 mg, through Week 28) | serious TEAE: Respiratory, Thoracic and Mediastinal Disorders (50 mg, through Week 28)
19 (40%) N (%): ALS-related TEAE: Musculoskeletal and Connective Tissue Disorders (50 mg, through Week 28)
6 (24%) N (%): AE: Muscular weakness [2]
3 (12%) N (%): AE: Dysarthria [2] | AE: Oedema peripheral [2] | AE: Pharyngolaryngeal pain [2] | AE: Upper respiratory tract infection [2]
11 N (%) and 11 (23%) N (%): ≧1 serious TEAE (including death) (50 mg, through Week 28)
6 subjects: subjects with prolonged QTcB [3]
2 (8%) N (%): AE: Depression [2] | AE: Dyspnoea [2] | AE: Headache [2] | AE: Nausea [2] | AE: Urinary tract infection [2]
4 (16%) N (%): AE: Constipation [2]
333: Number of TEAEs [4]
9 (19%) N (%): TEAE: Psychiatric Disorders (50 mg, through Week 28)
85%: AEs related to ALS as assessed by the Investigator [3]
14 N (%) and 14 (29%) N (%): ≧1 serious TEAE (including death) [4]
3 (13%) N (%): AE: Dyspnoea [1]
15 (31%) N (%): TEAE: Injury, Poisoning and Procedural Complication (50 mg, through Week 28)
17: Number of severe TEAEs (50 mg, through Week 28)
8 (17%) N (%): ALS-related TEAE: General Disorders and Administration Site Conditions (50 mg, through Week 28) | ALS-related TEAE: Salivary hypersecretion (50 mg, through Week 28) | TEAE: Constipation (50 mg, through Week 28) | TEAE: Salivary hypersecretion (50 mg, through Week 28)
12 (25%) N (%) and 12 N (%): ≧1 severe TEAE (50 mg, through Week 28)
6 (26%) N (%): AE: Fall [1]
1: Number of serious treatment-related TEAE (50 mg, through Week 28) | Number of serious treatment-related TEAEs [4]
1 (2%) N (%): ALS-related TEAE: Arthralgia (50 mg, through Week 28) | ALS-related TEAE: Contusion (50 mg, through Week 28) | ALS-related TEAE: Depression (50 mg, through Week 28) | ALS-related TEAE: Dysphasia (50 mg, through Week 28) | ALS-related TEAE: Increased upper airway secretion (50 mg, through Week 28) | ALS-related TEAE: Metabolism and Nutrition Disorders (50 mg, through Week 28) | ALS-related TEAE: Muscle twitching (50 mg, through Week 28) | ALS-related TEAE: Musculoskeletal pain (50 mg, through Week 28) | ALS-related TEAE: Neck pain (50 mg, through Week 28) | TEAE: Cough (50 mg, through Week 28) | TEAE: Dehydration (50 mg, through Week 28) | TEAE: Neck pain (50 mg, through Week 28) | TEAE: Tachycardia (50 mg, through Week 28) | serious TEAE: Acute myocardial infarction (50 mg, through Week 28) | serious TEAE: Cardiac Disorders (50 mg, through Week 28) | serious TEAE: Cardiac failure congestive (50 mg, through Week 28) | serious TEAE: Disease progression (50 mg, through Week 28) | serious TEAE: Dyspnoea (50 mg, through Week 28) | serious TEAE: Gastrointestinal Disorders (50 mg, through Week 28) | serious TEAE: Ileus (50 mg, through Week 28) | serious TEAE: Pneumonia (50 mg, through Week 28) | serious TEAE: Pneumonia bacterial (50 mg, through Week 28) | serious TEAE: Pulmonary embolism (50 mg, through Week 28) | serious TEAE: Respiratory distress (50 mg, through Week 28) | serious TEAE: Sudden death (50 mg, through Week 28) | serious TEAE: Viral infection (50 mg, through Week 28) | ≧1 serious treatment-related TEAE (50 mg, through Week 28)
14 (29%) N (%): TEAE: General Disorders and Administration Site Conditions (50 mg, through Week 28) | TEAE: Skin and Subcutaneous Tissue Disorders (50 mg, through Week 28)
16 (33%) N (%): ALS-related TEAE: Gastrointestinal Disorders (50 mg, through Week 28) | TEAE: Nervous System Disorders (50 mg, through Week 28)
17%: incidence of ECGs with QTcB increased >30 msec from baseline (50 mg, any post-baseline visit)
0 N (%): AE: Dry mouth [1] | ALS-related TEAE: Dehydration (50 mg, through Week 28) | ALS-related TEAE: Dyspnoea exertional (50 mg, through Week 28) | ALS-related TEAE: Weight decreased (50 mg, through Week 28) | TEAE: Dizziness (50 mg, through Week 28) | TEAE: Hyperglycaemia (50 mg, through Week 28) | TEAE: Insomnia (50 mg, through Week 28) | serious TEAE: Atrial fibrillation (50 mg, through Week 28) | serious TEAE: Blood and Lymphatic System Disorders (50 mg, through Week 28) | serious TEAE: Cholecystitis acute (50 mg, through Week 28) | serious TEAE: Concussion (50 mg, through Week 28) | serious TEAE: Fall (50 mg, through Week 28) | serious TEAE: Hepatobiliary Disorders (50 mg, through Week 28) | serious TEAE: Injury, Poisoning and Procedural Complications (50 mg, through Week 28) | serious TEAE: Neutropenia (50 mg, through Week 28) | serious TEAE: Pneumonia aspiration (50 mg, through Week 28) | serious TEAE: Subdural haematoma (50 mg, through Week 28)
7 N (%) and 7 (15%) N (%): ≧1 TEAE with an outcome of death (50 mg, through Week 28) | ≧1 TEAE with an outcome of death [4]
2 (9%) N (%): AE: Nausea [1] | AE: Upper respiratory tract infection [1]
21 (44%) N (%): TEAE: Gastrointestinal Disorders (50 mg, through Week 28) | TEAE: Infections and Infestations (50 mg, through Week 28)
